Measured values from patent US7402557B2, “Combined treatment with keratinocyte growth factor and epidermal growth factor inhibitor” (priority 2000, dated 2008).

Legend:
[1] = tested on: normal keratinocytes and EGFR over-expressing tumor cells; conditions: cited from earlier work
[2] = tested on: hyper-phosphorylated retinoblastoma protein (ppRB); conditions: cited from earlier work
p27^kip1/waf1 [3] = conditions: cited from earlier work
[4] = tested on: normal human neonatal epidermal keratinoctyes, NHEK; assay: Flow cytometric measurement of cell cycle arrest (BrdU incorporation / propidium iodide); assay type: cell-based; conditions: for % G1 / % G2 / % S: 24 hr, NHEK; for effect on cell cycle phase distribution (in words): keratinocytes treated for 24 hours
Protocol: (§1) The protective effect of KGF on keratinocytes was measured in two types of assays, the first to determine its protective effect on cell cycle phase distribution against a small molecule EGFR inhibitor, and the second to determine its protective effect against ppRB depletion and p27^kip1/waf1 upregulation caused by the EGFR inhibitor. The effect of KGF on cell cycle phase distribution was measured by bivariate analysis of bromodeoxyuridine incorporation and propidium iodide uptake by […] using flow cytometry. The protective effect of KGF against ppRB depletion and p27^kip1/waf1 upregulation was measured by immunoblotting of lysates from treated and control […] cells with antibodies specific for RB and p27^kip1/waf1, respectively. The methods are described in detail below.
(§2) All experiments were carried out with normal human neonatal epidermal keratinoctyes, NHEK (Clonetics, San Diego, Calif.). Cells were maintained in Keratinocyte Growth Medium, KGM-2 (Clonetics). Human recombinant KGF expressed in E. coli as a 19 kDa protein was purchased from Sigma Chemical Co. (St. Louis, Mo.).
NHEK cells were seeded in 60-mm dishes in KGM-2. When the cells were semiconfluent, the medium was replaced with fresh medium containing the test agents: vehicle (0.125% DMSO); vehicle+20 ng/ml KGF; vehicle+0.3 μM CP-358, 774-01+/−20 ng/ml KGF; or vehicle+1 μM CP-358, 774-01+/−20 ng/ml KGF. The cells were incubated at 37° C. in a 5% CO2, humidified atmosphere. After 24 hr, bromodeoxyuridine (BrdU) was added to the medium at a final concentration of 10 μM for 30 min. The cells were then harvested using 0.25% trypsin/1 mM EDTA and counted using a Coulter counter. Aliquots of 2×10^6 cells were collected by centrifugation at 220×g for 5 min, washed in 2 ml phosphate buffered saline (PBS) containing 2.5% fetal calf serum, resuspended in 0.2 ml PBS, and fixed by the addition of 5 ml 70% ethanol at −20° C. After a 30 min incubation on ice, the cells were collected by centrifugation at 500×g for 5 min and resuspended in 25 μl PBS. One ml of 0.2 mg/ml pepsin in 2 N HCI was added and the cells were incubated for 30 min at rm temp. Cells were collected by centrifugation at 1500×g for 5 min and washed with 1 ml 0.1 M sodium borate, pH 8.5. Cells were pelleted at 1500×g for 5 min, resuspended in 1 ml of fluorescein isothiocyanate (FITC)-conjugated anti-BrdU (Becton Dickinson, San Jose, Calif.) diluted fifty-fold in PBS containing 0.5% Tween 20 and 1% bovine serum albumin, and incubated at ambient temperature in the dark for 30 min. After a final wash with PBS with 0.5% Tween 20 and 1% BSA, the cells were resuspended in PBS containing 10 μg/ml propidium iodide and 10 μg/ml RNase, filtered through a 35 µm mesh and analyzed on a FACSCalibur flow cytometer (Becton Dickinson) equipped with an argon laser with an emission wavelength of 488 nm. FITC fluorescence data was acquired at 515-545 nm, and propidium iodide fluorescence data was acquired at […]. A minimum of 20,000 cells was analyzed per sample. Data was analyzed using CellQuest software (Becton-Dickinson) and the percent of cells in each phase (G1, S, G2) of the cell cycle was calculated.

[5] = tested on: hyperphosphorylated retinoblastoma protein (ppRB); assay: Immunoblot of hyperphosphorylated RB (ppRB) in NHEK lysates; assay type: cell-based, human; conditions: 24 hr
Protocol: as §1, §2
(§3) NHEK cells were seeded in 6-well plates and grown until semi-confluent in KGM-2. […] Total protein concentration of the lysates was determined using the BCA protein assay (Pierce Chemicals, Rockford, Ill.). […]

p27^kip1/waf1 [6] = assay: Immunoblot of p27^kip1/waf1 protein level in NHEK lysates; assay type: cell-based, human; conditions: 24 hr
Protocol: as §1, §2, §3

FGFR1iiib receptor = conditions: cited from earlier work

C#Cc1cccc(Nc2ncnc3cc(OCCOC)c(OCCOC)cc23)c1 [CP-358,774, [6,7-bis(2-methoxy-ethoxy)-quinazolin-4-yl]-(3-ethynylphenyl)amine]
cell cycle arrest (accumulation of cells in G1 phase) [1]: causes cell cycle arrest
effect on hyper-phosphorylated retinoblastoma protein (ppRB) [2]: causes depletion
effect on cyclin-dependent kinase inhibitor p27^kip1/waf1 (p27^kip1/waf1 [3]): accumulation

C#Cc1cccc(Nc2ncnc3cc(OCCOC)c(OCCOC)cc23)c1.Cl [Compound A]
% G1 ([4]; 0.3 μM Compound A): 75%
% G2 ([4]; 0.3 μM Compound A): 11%
% S ([4]; 0.3 μM Compound A): 13%
% G1 ([4]; 1 μM Compound A): 85%
% G2 ([4]; 1 μM Compound A): 10%
% S ([4]; 1 μM Compound A): 6.0%
effect on cell cycle phase distribution (in words) [4]: concentration dependent accumulation of cells in the G1 phase of the cell cycle and a corresponding decrease in the S-phase fraction
ppRB signal on RB immunoblot ([5]; 0.3 μM Compound A): dramatically reduced
ppRB band on RB immunoblot ([5]; 1 μM Compound A): completely abolished
induction of p27^kip1/waf1 protein levels (p27^kip1/waf1 [6]; 0.3 μM Compound A): 3.9 fold
induction of p27^kip1/waf1 (p27^kip1/waf1 [6]; 1 μM Compound A): 5.2 fold

B1: KGF-2: keratinocyte growth factor family member, also known as FGF-10 (protein, UniProt O15520 38-208, looked up)
Fibroblast growth factor 10: QALGQDMVSPEATNSSSSSFSSPSSAGRHVRSYNHLQGDVRWRKLFSFTKYFLKIEKNGKVSGTKKENCPYSILEITSVEIGVVAVKAINSNYYLAMNKKGKLYGSKEFNNDCKLKERIEENGYNTYASFNWQHNGRQMYVALNGKGAPRRGQKTRRKNTSAHFLPMVVHS
binding to FGFR1iiib receptor (FGFR1iiib receptor): high affinity

B2: KGF: Human recombinant KGF expressed in E. coli as a 19 kDa protein, purchased from Sigma Chemical Co. (protein, UniProt P21781 32-194, looked up)
Fibroblast growth factor 7: CNDMTPEQMATNVNCSSPERHTRSYDYMEGGDIRVRRLFCRTQWYLRIDKRGKVKGTQEMKNNYNIMEIRTVAVGIVAIKGVESEFYLAMNKEGKLYAKKECNEDCNFKELILENHYNTYASAKWTHNGGEMFVALNQKGIPVRGKKTKKEQKTAHFLPMAIT
% G1 ([4]; 20 ng/ml KGF alone): 52%
% G2 ([4]; 20 ng/ml KGF alone): 13%
% S ([4]; 20 ng/ml KGF alone): 34%
effect on cell cycle phase distribution (in words) [4]: no significant effect

B3: KGF-1: keratinocyte growth factor family member, also known as FGF-7 (protein, UniProt P21781 32-194, looked up)
Fibroblast growth factor 7: B2 Fibroblast growth factor 7
binding to FGFR1iiib receptor (FGFR1iiib receptor): high affinity
